Data taken from patent publication US20250223268A1, “4-Methylsulfonylbenzamide Compound, Preparation Method, Herbicidal Composition And Use” (Jiangsu Flag Chemical Industry Co., Ltd., priority 2022, published 2025).

Key:
Assay in all cases: Greenhouse herbicidal activity assay, post-emergence
Format in all cases: in vivo
Settings in all cases: Post-emergence test, rate 150 g a.i./hm^2, grade by fresh weight inhibition rate
Cyperus iria = system: Cyperus iria
Summary of the method: (§1)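 Foliar spray at 3-6 leaves; pot-grown in nutrient soil in growth chamber; air-dried post-spray. Read-out at 14-21 d: fresh weight inhibition, graded A (≥80% to 100%) down to E (<20%); NT = not tested.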

Digitaria sanguinalis = system: Digitaria sanguinalis
Summary of the method: as §1

Echinochloa crusgalli = system: Echinochloa crusgalli
Summary of the method: as §1

Eclipta prostrata = system: Eclipta prostrata
Summary of the method: as §1

Leptochloa chinensis = system: Leptochloa chinensis
Summary of the method: as §1

| Compound | Control efficacy grade, Cyperus iria (Cyperus iria) | Control efficacy grade, Digitaria sanguinalis (Digitaria sanguinalis) | Control efficacy grade, Echinochloa crusgalli (Echinochloa crusgalli) | Control efficacy grade, Eclipta prostrata (Eclipta prostrata) | Control efficacy grade, Leptochloa chinensis (Leptochloa chinensis) | pest or weed control at 150 g/ha (Cyperus iria; Cyperus iria, read-out: Control efficacy grade, Cyperus iria) | pest or weed control at 150 g/ha (Digitaria sanguinalis; Digitaria sanguinalis, read-out: Control efficacy grade, Digitaria sanguinalis) | pest or weed control at 150 g/ha (Echinochloa crusgalli; Echinochloa crus-galli, read-out: Control efficacy grade, Echinochloa crusgalli) | pest or weed control at 150 g/ha (Eclipta prostrata; Eclipta prostrata, read-out: Control efficacy grade, Eclipta prostrata) | pest or weed control at 150 g/ha (Leptochloa chinensis; Dinebra chinensis, read-out: Control efficacy grade, Leptochloa chinensis) |
| --- | --- | --- | --- | --- | --- | --- | --- | --- | --- | --- |
| CCC[S+]([O-])c1c(S(C)(=O)=O)ccc(C(=O)Nc2nnc(C3CC3)o2)c1Cl (racemic) [Compound 3-616] | A (Fresh weight inhibition rate≥80% to 100%) | A (Fresh weight inhibition rate≥80% to 100%) | A (Fresh weight inhibition rate≥80% to 100%) | A (Fresh weight inhibition rate≥80% to 100%) | A (Fresh weight inhibition rate≥80% to 100%) | – | – | – | – | – |
| CC(C)[S+]([O-])c1c(S(C)(=O)=O)ccc(C(=O)Nc2nnc(C3CC3)o2)c1Cl (racemic) [Compound 3-621, 2-chloro-N-(5-cyclopropyl-1,3,4-oxadiazol-2-yl)-3-(isopropylsulfinyl)-4-(methylsulfonyl)benzamide] | – | – | – | – | – | 80 to 100% | 80 to 100% | 80 to 100% | 80 to 100% | 80 to 100% |
| CCCC[S+]([O-])c1c(S(C)(=O)=O)ccc(C(=O)Nc2nnc(C3CC3)o2)c1Cl (racemic) [Compound 3-626] | A (Fresh weight inhibition rate≥80% to 100%) | A (Fresh weight inhibition rate≥80% to 100%) | A (Fresh weight inhibition rate≥80% to 100%) | A (Fresh weight inhibition rate≥80% to 100%) | A (Fresh weight inhibition rate≥80% to 100%) | – | – | – | – | – |
| CS(=O)(=O)c1ccc(C(=O)Nc2nnc(C3CC3)o2)c(Cl)c1[S+]([O-])CC1CC1 (racemic) [Compound 3-647] | A (Fresh weight inhibition rate≥80% to 100%) | A (Fresh weight inhibition rate≥80% to 100%) | A (Fresh weight inhibition rate≥80% to 100%) | A (Fresh weight inhibition rate≥80% to 100%) | A (Fresh weight inhibition rate≥80% to 100%) | – | – | – | – | – |
| CS(=O)(=O)c1ccc(C(=O)Nc2nnc(C3CC3)o2)c(Cl)c1[S+]([O-])C1CCC1 (racemic) [Compound 3-657] | A (Fresh weight inhibition rate≥80% to 100%) | A (Fresh weight inhibition rate≥80% to 100%) | B (Fresh weight inhibition rate≥260% to <80%) | A (Fresh weight inhibition rate≥80% to 100%) | A (Fresh weight inhibition rate≥80% to 100%) | – | – | – | – | – |
| CS(=O)(=O)c1ccc(C(=O)Nc2nnc(C3CC3)o2)c(Cl)c1[S+]([O-])C1CCCCC1 (racemic) [Compound 3-667] | A (Fresh weight inhibition rate≥80% to 100%) | A (Fresh weight inhibition rate≥80% to 100%) | C (Fresh weight inhibition rate≥40% to <60%) | A (Fresh weight inhibition rate≥80% to 100%) | A (Fresh weight inhibition rate≥80% to 100%) | – | – | – | – | – |
| C=CC[S+]([O-])c1c(S(C)(=O)=O)ccc(C(=O)Nc2nnc(C3CC3)o2)c1Cl (racemic) [Compound 3-687] | A (Fresh weight inhibition rate≥80% to 100%) | A (Fresh weight inhibition rate≥80% to 100%) | B (Fresh weight inhibition rate≥260% to <80%) | A (Fresh weight inhibition rate≥80% to 100%) | A (Fresh weight inhibition rate≥80% to 100%) | – | – | – | – | – |
| CS(=O)(=O)c1ccc(C(=O)Nc2nnc(C3CC3)o2)c(Cl)c1[S+]([O-])C(F)(F)C(F)(F)F (racemic) [Compound 3-692] | A (Fresh weight inhibition rate≥80% to 100%) | A (Fresh weight inhibition rate≥80% to 100%) | A (Fresh weight inhibition rate≥80% to 100%) | A (Fresh weight inhibition rate≥80% to 100%) | A (Fresh weight inhibition rate≥80% to 100%) | – | – | – | – | – |
| CS(=O)(=O)c1ccc(C(=O)Nc2nnc(C3CC3)o2)c(Cl)c1[S+]([O-])CCCl (racemic) [Compound 3-727] | A (Fresh weight inhibition rate≥80% to 100%) | A (Fresh weight inhibition rate≥80% to 100%) | A (Fresh weight inhibition rate≥80% to 100%) | A (Fresh weight inhibition rate≥80% to 100%) | A (Fresh weight inhibition rate≥80% to 100%) | – | – | – | – | – |
| CCCC[S+]([O-])c1c(S(C)(=O)=O)ccc(C(=O)Nc2nonc2C)c1Cl (racemic) [Compound 4-12] | A (Fresh weight inhibition rate≥80% to 100%) | A (Fresh weight inhibition rate≥80% to 100%) | A (Fresh weight inhibition rate≥80% to 100%) | A (Fresh weight inhibition rate≥80% to 100%) | B (Fresh weight inhibition rate≥260% to <80%) | – | – | – | – | – |
| Cc1nonc1NC(=O)c1ccc(S(C)(=O)=O)c([S+]([O-])C2CC2)c1Cl (racemic) [Compound 4-38] | A (Fresh weight inhibition rate≥80% to 100%) | A (Fresh weight inhibition rate≥80% to 100%) | A (Fresh weight inhibition rate≥80% to 100%) | A (Fresh weight inhibition rate≥80% to 100%) | A (Fresh weight inhibition rate≥80% to 100%) | – | – | – | – | – |
| Cc1nonc1NC(=O)c1ccc(S(C)(=O)=O)c([S+]([O-])C2CCC2)c1Cl (racemic) [Compound 4-43] | A (Fresh weight inhibition rate≥80% to 100%) | A (Fresh weight inhibition rate≥80% to 100%) | A (Fresh weight inhibition rate≥80% to 100%) | A (Fresh weight inhibition rate≥80% to 100%) | A (Fresh weight inhibition rate≥80% to 100%) | – | – | – | – | – |
| CCC[S+]([O-])c1c(S(C)(=O)=O)ccc(C(=O)Nc2nnnn2C)c1Cl (single isomer, unassigned) [Compound 1-3] | A (Fresh weight inhibition rate≥80% to 100%) | A (Fresh weight inhibition rate≥80% to 100%) | A (Fresh weight inhibition rate≥80% to 100%) | A (Fresh weight inhibition rate≥80% to 100%) | A (Fresh weight inhibition rate≥80% to 100%) | – | – | – | – | – |
| CCC[S+]([O-])c1c(S(C)(=O)=O)ccc(C(=O)Nc2nnnn2C)c1Cl (single isomer, unassigned) [Compound 1-4] | A (Fresh weight inhibition rate≥80% to 100%) | A (Fresh weight inhibition rate≥80% to 100%) | A (Fresh weight inhibition rate≥80% to 100%) | A (Fresh weight inhibition rate≥80% to 100%) | A (Fresh weight inhibition rate≥80% to 100%) | – | – | – | – | – |
| CC(C)[S+]([O-])c1c(S(C)(=O)=O)ccc(C(=O)Nc2nnnn2C)c1Cl (single isomer, unassigned) [Compound 1-8] | A (Fresh weight inhibition rate≥80% to 100%) | A (Fresh weight inhibition rate≥80% to 100%) | A (Fresh weight inhibition rate≥80% to 100%) | A (Fresh weight inhibition rate≥80% to 100%) | A (Fresh weight inhibition rate≥80% to 100%) | – | – | – | – | – |
| CC(C)[S+]([O-])c1c(S(C)(=O)=O)ccc(C(=O)Nc2ncnn2C)c1Cl (single isomer, unassigned) [Compound 2-8] | A (Fresh weight inhibition rate≥80% to 100%) | A (Fresh weight inhibition rate≥80% to 100%) | A (Fresh weight inhibition rate≥80% to 100%) | A (Fresh weight inhibition rate≥80% to 100%) | A (Fresh weight inhibition rate≥80% to 100%) | – | – | – | – | – |
| CC(C)[S+]([O-])c1c(S(C)(=O)=O)ccc(C(=O)Nc2ncnn2C)c1Cl (single isomer, unassigned) [Compound 2-9] | A (Fresh weight inhibition rate≥80% to 100%) | A (Fresh weight inhibition rate≥80% to 100%) | A (Fresh weight inhibition rate≥80% to 100%) | A (Fresh weight inhibition rate≥80% to 100%) | A (Fresh weight inhibition rate≥80% to 100%) | – | – | – | – | – |
| Cn1ncnc1NC(=O)c1ccc(S(C)(=O)=O)c([S+]([O-])CC2CC2)c1Cl (single isomer, unassigned) [Compound 2-29] | A (Fresh weight inhibition rate≥80% to 100%) | A (Fresh weight inhibition rate≥80% to 100%) | A (Fresh weight inhibition rate≥80% to 100%) | A (Fresh weight inhibition rate≥80% to 100%) | A (Fresh weight inhibition rate≥80% to 100%) | – | – | – | – | – |
